Test results: ChEMBL document CHEMBL3046393, “3D-QSAR studies of thiosemicarbazone and thiocarbamoylpyrazoline antiamebics” (Med Chem Res, 2013)

System: Entamoeba histolytica
Experiment: Antiamoebic activity against trophozoite stage of Entamoeba histolytica HM-1:IMSS assessed as parasite growth inhibition after 72 hr by microdilution assay
Format: functional, organism-based

Row | SMILES | IC50 [µM]
1 | CCCN(CCC)C(=S)N1CCC(c2ccccc2)=N1 | 2
2 | S=C(N1CCC(Cc2ccccc2)CC1)N1CCC(c2ccccc2)=N1 | 2.3
3 | S=C(NC1CCCCCCC1)N1CCC(c2cccc(Br)c2)=N1 | 2
4 | CCN(CC)C(=S)N1CCC(c2ccccc2)=N1 | 4.2
5 | S=C(N1CCN(c2ccccc2)CC1)N1CCC(c2cccc(Br)c2)=N1 | 1.6
6 | S=C(NC1CCCC1)N1CCC(c2cccc(Cl)c2)=N1 | 3.7
7 | CCCNC(=S)N1CCC(c2ccccc2)=N1 | 14
8 | CC(C)CNC(=S)N1CCC(c2ccccc2)=N1 | 11.2
9 | CCN(CC)C(=S)N1CCC(c2cccc(Br)c2)=N1 | 1.2
10 | S=C(NC1CCCC1)N1CCC(c2cccc(Br)c2)=N1 | 4.2
11 | S=C(NCc1ccccc1Cl)N1CCC(c2cccc(Cl)c2)=N1 | 2.2
12 | CC(C)CNC(=S)N1CCC(c2cccc(Br)c2)=N1 | 6.1
13 | S=C(NC1CCCCC1)N1CCC(c2cccc(Br)c2)=N1 | 3.1
14 | S=C(NC1CCCC1)N1CCC(c2ccccc2)=N1 | 6.5
15 | CCCCNC(=S)N1CCC(c2cccc(Br)c2)=N1 | 14.2
16 | CC(C)NC(=S)N1CCC(c2cccc(Cl)c2)=N1 | 12.2
17 | CC(C)NC(=S)N1CCC(c2ccccc2)=N1 | 23
18 | CC1CCN(C(=S)N2CCC(c3cccc(Cl)c3)=N2)CC1 | 2.8
19 | CCCCNC(=S)N1CCC(c2ccccc2)=N1 | 23.3
20 | CC1CCN(C(=S)N2CCC(c3cccc(Br)c3)=N2)CC1 | 3.6

Row | SMILES | IC50 [µM]
21 | S=C(NCc1ccccc1Cl)N1CCC(c2cccc(Br)c2)=N1 | 2.6
22 | S=C(NCc1ccccc1Cl)N1CCC(c2ccccc2)=N1 | 7.6
23 | S=C(NC1CCCCCCC1)N1CCC(c2cccc(Cl)c2)=N1 | 1.5
24 | CCCCN(C)C(=S)N1CCC(c2cccc(Br)c2)=N1 | 2.4
25 | CCCCNC(=S)N1CCC(c2cccc(Cl)c2)=N1 | 12.3
26 | S=C(NC1CCCCC1)N1CCC(c2ccccc2)=N1 | 5.2
27 | S=C(N1CCC(Cc2ccccc2)CC1)N1CCC(c2cccc(Br)c2)=N1 | 1.4
28 | S=C(N1CCN(c2ccccc2)CC1)N1CCC(c2cccc(Cl)c2)=N1 | 1.2
29 | S=C(N1CCN(c2ccccc2)CC1)N1CCC(c2ccccc2)=N1 | 3.1
30 | CCCNC(=S)N1CCC(c2cccc(Br)c2)=N1 | 8.5
31 | CCCCN(C)C(=S)N1CCC(c2ccccc2)=N1 | 5.7
32 | CC(C)/N=C(\S)N1CCC(c2cccc(Br)c2)=N1 | 15.2
33 | CC1CCN(C(=S)N2CCC(c3ccccc3)=N2)CC1 | 4.8
34 | CCCN(CCC)C(=S)N1CCC(c2cccc(Cl)c2)=N1 | 0.6
35 | CC(C)CNC(=S)N1CCC(c2cccc(Cl)c2)=N1 | 5
36 | CCCN(CCC)C(=S)N1CCC(c2cccc(Br)c2)=N1 | 0.8
37 | S=C(NC1CCCCC1)N1CCC(c2cccc(Cl)c2)=N1 | 2.4
38 | CCCCN(C)C(=S)N1CCC(c2cccc(Cl)c2)=N1 | 0.7
39 | S=C(NC1CCCCCCC1)N1CCC(c2ccccc2)=N1 | 2.5
40 | CCN(CC)C(=S)N1CCC(c2cccc(Cl)c2)=N1 | 1
